One test has as its target recombinant human NK3 receptor (Homo sapiens (Human), UniProt P29371). The test is described as follows: biochemical. It is filed as binding. The settings on record: [3H]SR142801, membranes of HEK293 cells transiently expressing recombinant human NK3 receptor; read-out: Data Ki (hNK-3 receptor affinity). As for the experimental part: [^3H]SR142801 Competition Binding Assay
hNK3 receptor binding experiment were performed using [^3H]SR142801 (Catalog No. TRK1035, specific activity: 74.0 Ci/mmol, Amersham, GE Healthcare UK limited, Buckinghamshire, UK) and membrane isolated from HEK293 cells transiently expressing recombinant human NK3 receptor. After thawing, the membrane homogenates were centrifuged at 48,000×g for […] at 4° C., the pellets were resuspended in the 50 mM Tris-HCl, 4 mM MnCl2, 1 μM phosphoramidon, 0.1% BSA binding buffer at pH 7.4 to a final assay concentration of 5 μg protein/well. For inhibition experiments, membranes were incubated with [^3H]SR142801 at a concentration equal to KD value of radioligand and 10 concentrations of the inhibitory compound (0.0003-10 μM) (in a total reaction volume of 500 μl) for 75 min at room temperature (RT). At the end of the incubation, membranes were filtered onto unitfilter (96-well white microplate with bonded GF/C filter preincubated 1 h in 0.3% PEI+0.3% BSA, Packard BioScience, Meriden, Conn.) with a Filtermate 196 harvester (Packard BioScience) and washed 4 times with ice-cold 50 mM Tris-HCl, pH 7.4 buffer. Nonspecific binding was measured in the presence of 10 μM SB222200 for both radioligands. The radioactivity on the filter was counted (5 min) on a Packard Top-count microplate scintillation counter with quenching correction after addition of 45 μl of microscint 40 (Canberra Packard S.A., Zürich, Switzerland) and shaking for 1 h. Inhibition curves were fitted according to the Hill equation: y=100/(1+(x/IC50)^nH), where nH=slope factor using Excel-fit 4 software (Microsoft). IC50 values were derived from the inhibition curve and the affinity constant (Ki) values were calculated using the Cheng-Prussoff equation Ki=IC50/(1+[L]/KD) where [L] is the concentration of radioligand and KD is its dissociation constant at the receptor, derived from the saturation isotherm. All experiments were performed in duplicate and the mean±standard error (SEM) of the individual Ki values was calculated.
recombinant human NK3 receptor, sequence (P29371 whole entry): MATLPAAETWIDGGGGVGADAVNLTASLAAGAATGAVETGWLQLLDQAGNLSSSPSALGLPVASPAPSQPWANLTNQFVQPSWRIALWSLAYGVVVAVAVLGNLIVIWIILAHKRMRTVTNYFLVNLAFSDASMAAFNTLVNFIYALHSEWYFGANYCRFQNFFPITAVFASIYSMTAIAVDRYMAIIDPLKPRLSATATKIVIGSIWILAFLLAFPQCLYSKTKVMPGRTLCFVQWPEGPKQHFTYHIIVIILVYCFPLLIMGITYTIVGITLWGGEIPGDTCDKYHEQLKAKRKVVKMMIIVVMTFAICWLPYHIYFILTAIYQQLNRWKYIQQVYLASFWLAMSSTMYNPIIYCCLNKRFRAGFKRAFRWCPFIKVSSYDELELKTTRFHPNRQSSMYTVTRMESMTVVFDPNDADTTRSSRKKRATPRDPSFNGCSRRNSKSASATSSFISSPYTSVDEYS
As to `CC(C)N(C(=O)Oc1ccc(F)cc1)[C@H]1CN(C(=O)C2CCN(c3ccc(C#N)cn3)CC2)C[C@@H]1c1ccc(Cl)cc1` [Example 28, [(3R,4S)-4-(4-Chloro-phenyl)-1-(5′-cyano-3,4,5,6-tetrahydro-2H-[1,2′]bipyridinyl-4-carbonyl)-pyrrolidin-3-yl]-isopropyl-carbamic acid 4-fluoro-phenyl ester], the Ki came out at 50 nM. Take `N#Cc1ccc(N2CCC(C(=O)N3C[C@@H](N(C(=O)Oc4ccc(F)cc4)C4CC4)[C@H](c4ccc(Cl)cc4)C3)CC2)nc1` [Example 29, [(3S,4R)-4-(4-Chloro-phenyl)-1-(5′-cyano-3,4,5,6-tetrahydro-2H-[1,2′]bipyridinyl-4-carbonyl)-pyrrolidin-3-yl]-cyclopropyl-carbamic acid 4-fluoro-phenyl ester]: the Ki stood at 12 nM. Take `CC(=O)c1ccc(N2CCC(C(=O)N3C[C@@H](N(C(=O)Oc4ccc(F)cc4)C4CC4)[C@H](c4ccc(Cl)cc4)C3)CC2)nc1` [Example 30, [(3S,4R)-1-(5′-Acetyl-3,4,5,6-tetrahydro-2H-[1,2′]bipyridinyl-4-carbonyl)-4-(4-chloro-phenyl)-pyrrolidin-3-yl]-cyclopropyl-carbamic acid 4-fluoro-phenyl ester]: the inhibitory constant (Ki) was 35 nM. On the same count and under the same terms, next, `N#Cc1ccc(N2CCC(C(=O)N3C[C@H](c4ccc(Cl)cc4)[C@@H](N(C(=O)Oc4ccc(F)cc4)C4CC4)C3)CC2)nc1` [Example 34, [(3R,4S)-4-(4-Chloro-phenyl)-1-(5′-cyano-3,4,5,6-tetrahydro-2H-[1,2′]bipyridinyl-4-carbonyl)-pyrrolidin-3-yl]-cyclopropyl-carbamic acid 4-fluoro-phenyl ester]: 116 nM; `CCN(C(=O)Oc1ccc(F)cc1)[C@@H]1CN(C(=O)C2CCN(c3ccc(C#N)cn3)CC2)C[C@H]1c1ccc(F)cc1` [Example 35, [(3S,4R)-1-(5′-Cyano-3,4,5,6-tetrahydro-2H-[1,2′]bipyridinyl-4-carbonyl)-4-(4-fluoro-phenyl)-pyrrolidin-3-yl]-ethyl-carbamic acid 4-fluoro-phenyl ester]: 4 nM; `CCN(C(=O)Oc1ccc(F)cc1)[C@@H]1CN(C(=O)C2CCN(c3ccc(S(C)(=O)=O)cn3)CC2)C[C@H]1c1ccc(F)cc1` [Example 37, Ethyl-[(3S,4R)-4-(4-fluoro-phenyl)-1-(5′-methanesulfonyl-3,4,5,6-tetrahydro-2H-[1,2′]bipyridinyl-4-carbonyl)-pyrrolidin-3-yl]-carbamic acid 4-fluoro-phenyl ester]: 8 nM. Still for that read-out and setting: next, `CCN(C(=O)Oc1ccc(F)cc1)[C@@H]1CN(C(=O)C2CCN(C(=O)OC(C)(C)C)CC2)C[C@H]1c1ccc(Cl)c(F)c1` [Example 39, 4-{(3R,4S)-3-(4-Chloro-3-fluoro-phenyl)-4-[ethyl-(4-fluoro-phenoxycarbonyl)-amino]-pyrrolidine-1-carbonyl}-piperidine-1-carboxylic acid tert-butyl ester]: 4 nM. Same read-out and setting: for `CCN(C(=O)Oc1ccc(F)cc1)[C@@H]1CN(C(=O)C2CCN(c3ccc(C#N)cn3)CC2)C[C@H]1c1ccc(Cl)c(F)c1` [Example 40, [(3S,4R)-4-(4-Chloro-3-fluoro-phenyl)-1-(5′-cyano-3,4,5,6-tetrahydro-2H-[1,2′]bipyridinyl-4-carbonyl)-pyrrolidin-3-yl]-ethyl-carbamic acid 4-fluoro-phenyl ester] the value was 0.7 nM. Take `CCN(C(=O)Oc1ccc(F)cc1)[C@@H]1CN(C(=O)C2CCN(c3ccc(Cl)cn3)CC2)C[C@H]1c1ccc(Cl)c(F)c1` [Example 41, [(3S,4R)-4-(4-Chloro-3-fluoro-phenyl)-1-(5′-chloro-3,4,5,6-tetrahydro-2H-[1,2′]bipyridinyl-4-carbonyl)-pyrrolidin-3-yl]-ethyl-carbamic acid 4-fluoro-phenyl ester]: the Ki stood at 0.6 nM. Consider `CCN(C(=O)Oc1ccc(F)cc1)[C@@H]1CN(C(=O)C2CCN(c3ccc(C(F)(F)F)cn3)CC2)C[C@H]1c1ccc(Cl)c(F)c1` [Example 42, [(3S,4R)-4-(4-Chloro-3-fluoro-phenyl)-1-(5′-trifluoromethyl-3,4,5,6-tetrahydro-2H-[1,2′]bipyridinyl-4-carbonyl)-pyrrolidin-3-yl]-ethyl-carbamic acid 4-fluoro-phenyl ester], for which the inhibition constant Ki was 2 nM. Still for that read-out and setting: next, `CCN(C(=O)Oc1ccc(F)cc1)[C@@H]1CN(C(=O)C2CCN(c3ccc(C#N)nc3)CC2)C[C@H]1c1ccc(Cl)c(F)c1` [Example 43, [(3S,4R)-4-(4-Chloro-3-fluoro-phenyl)-1-(6′-cyano-3,4,5,6-tetrahydro-2H-[1,3′]bipyridinyl-4-carbonyl)-pyrrolidin-3-yl]-ethyl-carbamic acid 4-fluoro-phenyl ester]: 0.3 nM; `CCN(C(=O)Oc1ccc(F)cc1)[C@@H]1CN(C(=O)C2CCN(C(=O)C3(C)CC3)CC2)C[C@H]1c1ccc(Cl)c(F)c1` [Example 44, {(3S,4R)-4-(4-Chloro-3-fluoro-phenyl)-1-[1-(1-methyl-cyclopropanecarbonyl)-piperidine-4-carbonyl]-pyrrolidin-3-yl}-ethyl-carbamic acid 4-fluoro-phenyl ester]: 2 nM.

The same test, now with this note: read-out: Data Ki (hNK-3 receptor affinity).
On to `O=C(C1CCN(c2ccc(C(F)(F)F)cn2)CC1)N1C[C@@H](N(C(=O)Oc2ccc(F)cc2)C2CC2)[C@H](c2ccc(Cl)cc2)C1` [Example 31, [(3S,4R)-4-(4-Chloro-phenyl)-1-(5′-trifluoromethyl-3,4,5,6-tetrahydro-2H-[1,2′]bipyridinyl-4-carbonyl)-pyrrolidin-3-yl]-cyclopropyl-carbamic acid 4-fluoro-phenyl ester], for which the Ki amounted to 57 nM. The same measure, in the same setting: next, `N#Cc1ccc(N2CCC(C(=O)N3C[C@@H](N(C(=O)Oc4ccc(F)cc4)C4CC4)[C@H](c4ccc(Cl)cc4)C3)CC2)nn1` [Example 32, {(3S,4R)-4-(4-Chloro-phenyl)-1-[1-(6-cyano-pyridazin-3-yl)-piperidine-4-carbonyl]-pyrrolidin-3-yl}-cyclopropyl-carbamic acid 4-fluoro-phenyl ester]: 52 nM; `N#Cc1cnc(N2CCC(C(=O)N3C[C@@H](N(C(=O)Oc4ccc(F)cc4)C4CC4)[C@H](c4ccc(Cl)cc4)C3)CC2)cn1` [Example 33, {(3S,4R)-4-(4-Chloro-phenyl)-1-[1-(5-cyano-pyrazin-2-yl)-piperidine-4-carbonyl]-pyrrolidin-3-yl}-cyclopropyl-carbamic acid 4-fluoro-phenyl ester]: 48 nM; `CCN(C(=O)Oc1ccc(F)cc1)[C@@H]1CN(C(=O)C2CCN(c3ccc(Cl)cn3)CC2)C[C@H]1c1ccc(F)cc1` [Example 36, [(3S,4R)-1-(5′-Chloro-3,4,5,6-tetrahydro-2H-[1,2′]bipyridinyl-4-carbonyl)-4-(4-fluoro-phenyl)-pyrrolidin-3-yl]-ethyl-carbamic acid 4-fluoro-phenyl ester]: 10 nM. The same measure, in the same setting: next, `CCN(C(=O)Oc1ccc(F)cc1)[C@@H]1CN(C(=O)C2CCN(c3ccc(C(C)=O)cn3)CC2)C[C@H]1c1ccc(F)cc1` [Example 38, [(3S,4R)-1-(5′-Acetyl-3,4,5,6-tetrahydro-2H-[1,2′]bipyridinyl-4-carbonyl)-4-(4-fluoro-phenyl)-pyrrolidin-3-yl]-ethyl-carbamic acid 4-fluoro-phenyl ester]: 7 nM.

Broadly, the Ki is the dissociation constant of the complex between target and ligand, obtained from inhibition or displacement.
